Test results: patent EP0974351A2, “Medicament for preventing and treating gastrointestinal damage” (JOUVEINAL, priority 1998, dated 2000)

Assays:
[1] = tested on: ethanol-induced gastric lesions; assay: Ethanol-induced gastric lesions in rats; format: in vivo; conditions: ethanol alone 41.9 ± 3.7
Protocol: Male Sprague-Dawley rats weighing 240 to 250 g were fasted for 24 hours and allowed free access to water prior to experiment. All test drugs were given intragastrically. Rats were pretreated with different doses of gabapentin at doses of 40 and 60 mg. Thirty minutes later indomethacin (25 mg/kg) was administered. Another group of rats received 10 mg of gabapentin twice, 3 hours apart, followed by indomethacin administration. Three hours after indomethacin treatment, the rats were killed and gastric lesions were assessed. The severity of the lesions were determined by the measurement of the square area (mm^2) of visible lesions.
To determine the effects of gabapentin on ethanol-induced gastric lesions, rats were pretreated with 1 mL of 70% ethanol, followed by gabapentin at a dose of 40 and 60 mg, respectively. Another group of rats were pretreated by 20 mg of gabapentin given twice, 3 hours apart, followed by ethanol administration. Thirty minutes later, all rats were killed and gastric lesions were assessed.

[2] = tested on: handling responses following withdrawal of chronic ethanol treatment; assay: Handling-induced behavior after ethanol withdrawal in mice; format: in vivo, Male albino mice of the outbred TO strain
Protocol: (§1) Male albino mice of the outbred TO strain (Bantin and Kingman, UK) were used in all studies. The weight ranged from 25 to 35 g, with no more than a 5 g range in any single experiment. The mice were housed, eight per cage, at 21°C ± 1°C, with 55 ± 10% relative humidity, and a 12-hour light/dark cycle with the light phase between 09:00 to 21:00. All mice received ad libitum access to tap water and standard laboratory chow (RM-1, Special Diet Services, UK) until their use in experiments or until their diet was replaced with a liquid diet.
(§2) Ethanol was administered in a liquid diet schedule. All mice received control diet for an initial 2-day period. Ethanol treated mice then received a diet containing 3.5% (v/v) ethanol/water for 2 days, followed by a diet containing 7% ethanol for a further 5 days. The average intake was 22 to 30 g/kg/day. Control groups were pair-fed a control diet, balanced isocalorifically to match the ethanol containing diet. There were no differences in the weights of the ethanol-treated and control mice at the end of the treatment periods. When mice were withdrawn from the ethanol (between 07:00 AM and 09:00 AM), they were provided with tap water until their use in experiments.
(§3) Gabapentin was dissolved in saline, the solution being made freshly each testing day. Intraperitoneal (i.p.) injections of either gabapentin, 10 mL/kg, or saline, were given immediately on withdrawal from the ethanol treatment, in the studies on the handling responses and 2 hours prior to measurement of audiogenic seizures. In the experiments using the elevated plus maze, gabapentin or saline was injected i.p. at 8 hours after the removal of the ethanol diet, and the mice placed on the plus maze 60 minutes after the injections. In the studies on motor co-ordination (ataxia) and on locomotor activity, gabapentin or saline was injected to ethanol-naive chow fed mice immediately before testing. Measurements were then made for 60 minutes for the ataxia study, and for 30 minutes in the case of the locomotor activity.
Following withdrawal from the ethanol treatment at 09:00 AM, ratings of handling-induced behavior were assessed by the same experimenter, on the same mice, every hour for a period of 12 hours after withdrawal from ethanol.
Each mouse was lifted gently by the tail and held for 3 seconds, 30 cm under an "Anglepoise lamp" with a 60-watt bulb. The animal was gently rotated and its ensuing behavior rated on a scale of 1 to 5 according to the criteria in Table 2. Groups of 15 mice were used in each of the treatment groups, and the data were calculated as medians with interquartile ranges. The data were also expressed as the area under the curve at 4 and 12 hours from the withdrawal of the ethanol treatment.
(§4) The results of the handling response ratings were compared by nonparametric two-way analysis of variance, designed for repeat measures on the same animal. The results of the area under the curve calculations were compared by the Mann-Whitney U-test. The convulsion incidence was analyzed by Fisher's exact probability test. The measurements from the elevated plus maze were subjected to one-way analysis of variance, followed by a Bonuferroni multiple comparison test, comparing all groups to the control group which received saline injections, and also both ethanol treated groups which received gabapentin to the ethanol treated group which received saline. The ataxia measurements were analyzed by the Mann-Whitney U-test and the locomotor activity by Student's t-test.

Audiogenic Convulsions = assay: Audiogenic seizures after ethanol withdrawal in mice; format: in vivo, Male albino mice of the outbred TO strain; conditions: for Percentage of Group Showing Clonic Convulsions: Ethanol Diet, 8 hours from ethanol withdrawal, ethanol/saline 80
Protocol: as §1, §2, §3
At 8 and 12 hours from ethanol withdrawal, the susceptibility to sound-induced convulsions was measured in separate groups of ten mice. Mice were tested individually in a sound-proof perspex box 30 × 30 × 30 cm containing an electric door-bell. The bell was rung for 2 minutes or until the first signs of convulsions. The number of mice which responded by wild-running and clonic convulsions was counted. The mice were humanely killed as soon as a full convulsion was seen.
as §4

Anxiety-Related Behavior = assay: Elevated plus maze, anxiety-related behavior 8 hours after ethanol withdrawal in mice; format: in vivo, Male albino mice of the outbred TO strain
Protocol: as §1, §2, §3
Mice were withdrawn from the ethanol diet at 7:00 AM and tested for anxiety-related behavior 8 hours later using a murine elevated plus-maze. It was constructed of perspex with two opposing open arms (30 × 5 × 0.25 cm) and two opposing closed arms (30 × 5 × 15 cm) which extended from a central platform (5 × 5 cm). The floor was of matt black perspex. The animals were acclimatized to the experimental room 1 hour prior to experimentation. Experiments were conducted under dim red light, and each 5 minute session was video-taped for later analysis, by an observer unaware of the prior treatment. During this analysis (Observer 3.0, Noldus Information Technology, Wageningen, Netherlands) measurements were made of the time spent on each arm of the maze, the number of entries onto each arm and rearing activity. Measures were also made as described in Table 3.
The results of the handling response ratings were compared by nonparametric two-way analysis of variance, designed for repeat measures on the same animal. The results of the area under the curve calculations were compared by the Mann-Whitney U-test. The convulsion incidence was analyzed by Fisher's exact probability test. […] The ataxia measurements were analyzed by the Mann-Whitney U-test and the locomotor activity by Student's t-test.

NCC1(CC(=O)O)CCCCC1 [Gabapentin, 1-(aminomethyl)-cyclohexane acetic acid]
area of injury ([1]; 40 mg gabapentin, 1 mL of 70% ethanol): 24.4 ± 3.5 mm^2
area of injury ([1]; 60 mg gabapentin, 1 mL of 70% ethanol): 18.7 ± 2.2 mm^2
area of injury ([1]; 2 doses of 20 mg gabapentin, 3 hours apart, then 1 mL of 70% ethanol, assessed 30 min later): 2.1 ± 0.3 mm^2
area under the handling curve for the first 4 hours ([2]; gabapentin 20 mg/kg i.p., p <0.05): significant effects
area under the handling curve for the first 4 hours ([2]; gabapentin 50 mg/kg i.p., p <0.05): significant effects
duration of marked reduction in handling scores ([2]; gabapentin 100 mg/kg i.p.): around 4 hours
ratings of behavior in response to gentle handling over the 12-hour testing period ([2]; gabapentin 100 mg/kg i.p. on withdrawal from ethanol, p <0.001): significantly reduced
area under the handling curve for the first 4 hours ([2]; gabapentin 100 mg/kg i.p., p <0.01): significant effects
ratings of behavior in response to gentle handling over the 12-hour period of measurement ([2]; lower doses of gabapentin (below 100 mg/kg) i.p. on withdrawal from ethanol): not significant
Percentage of Group Showing Clonic Convulsions (Audiogenic Convulsions; Gabapentin 5 mg/kg i.p. 2 hours before test): 92%
Percentage of Group Showing Clonic Convulsions (Audiogenic Convulsions; Gabapentin 20 mg/kg i.p.): 70%
Percentage of Group Showing Clonic Convulsions (Audiogenic Convulsions; Gabapentin 50 mg/kg i.p.): 40%
Percentage of Group Showing Clonic Convulsions (Audiogenic Convulsions; Gabapentin 100 mg/kg i.p.): 30 p <0.01 c.f Ethanol/Saline group %
convulsion incidence after the audiogenic stimulus (Audiogenic Convulsions; any of the doses tested, 12 hours from the end of the ethanol treatment (data not shown)): No effect
decrease in the percentage time spent on the open arms caused by ethanol withdrawal (Anxiety-Related Behavior; gabapentin 50 mg/kg i.p. 60 min before test, p <0.05 vs saline): decreased this effect
decrease in the percentage time spent on the open arms caused by ethanol withdrawal (Anxiety-Related Behavior; gabapentin 100 mg/kg i.p. 60 min before test, p <0.01 vs saline): decreased this effect
mean time on the open arms in control animals (Anxiety-Related Behavior; gabapentin 100 mg/kg i.p., control diet, mean increased): not significantly different from controls with saline
number of protected head dips in control animals (Anxiety-Related Behavior; gabapentin 100 mg/kg i.p., control diet, p <005 (so in the source)): significantly decreased
increase in protected head dips in mice undergoing ethanol withdrawal (Anxiety-Related Behavior; gabapentin 100 mg/kg i.p., p <0.01 compared with saline): significantly reduced
